In the first assay the target is T1, Lp-PLA2 in human plasma (Homo sapiens, UniProt Q13093).
T1 construct: from tissue; host or cells: pooled human plasma
T1 sequence (Q13093 22-441): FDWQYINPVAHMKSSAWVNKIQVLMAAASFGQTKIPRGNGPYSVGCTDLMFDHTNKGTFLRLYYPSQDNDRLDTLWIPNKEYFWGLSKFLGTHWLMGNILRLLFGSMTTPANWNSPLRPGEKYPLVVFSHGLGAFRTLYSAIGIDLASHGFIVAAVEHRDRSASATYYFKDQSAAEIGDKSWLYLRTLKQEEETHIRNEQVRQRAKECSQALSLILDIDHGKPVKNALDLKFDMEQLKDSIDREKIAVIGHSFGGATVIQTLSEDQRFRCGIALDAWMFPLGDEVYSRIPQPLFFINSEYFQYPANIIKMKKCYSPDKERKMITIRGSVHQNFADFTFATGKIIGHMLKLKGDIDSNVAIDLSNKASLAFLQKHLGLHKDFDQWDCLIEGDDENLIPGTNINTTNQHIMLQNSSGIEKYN
As to the kind of experiment: (3a) Lp-PLA2 human plasma Thio-PAF assay. Conditions: (3a) Thio-PAF assay, pooled human plasma; Examples 1-265 and 413-430 were tested here; read-out: pIC50 in the Lp-PLA2 human plasma assay (converted). It is filed as biochemical. From the text: (3) Lipoprotein-Associated Phospholipase A2 (Lp-PLA2) Human Plasma Assay
The human plasma assay utilizes a thioester analog of PAF (phosphatidylcholine), where hydrolysis yields to the formation of a phospholipid containing a free thiol group. The amount of thiol is quantitated continuously by reacting with CPM (7-diethylamino-3-(4′-maleimidylphenyl)-4-methylcoumarin), a maleimide which increases in fluoresence after Michael addition of thiols. This assay may detect the activity of Lp-PLA2 in human plasma, as determined by specific inhibition by Lp-PLA2 inhibitors.
The thio-PAF assay was run as a quenched 15 μL assay. Compounds source plate was prepared by making 1:3 (by volume) serial dilution of the compounds into pure DMSO on 384-well microplate. 0.01 μL of compounds on compound source plate were transferred to 384 well Greiner 784076 (black) low-volume plates by ECHO liquid dispenser. 8 μL pooled human plasma, which was previously aliquoted and frozen, was added. Plates were centrifuged for 10 sec at 500 rpm. After 30 minutes preincubation, 2 μL of substrate solution comprising 2.5 mM 2-thio-PAF [from ethanol stock], 32 μM CPM [from a DMSO stock] and 3.2 mM NEM (N-ethylmaleimide) [made fresh daily in DMSO] in assay buffer of 50 mM HEPES, pH 7.4, 150 mM NaCl, 1 mM CHAPS was added to 384 well Greiner 784076 (black) low-volume plates by BRAVO liquid handling station. After 2 mins, reaction was quenched with 5 μL of 5% aqueous trifluoroacetic acid (TFA). Plates were covered to protect from light and incubated for 40 min at room temperature. Plates were read at ex: 380/em: 485 using Envision microplate reader. PIC50 data, curve and QC analysis were conducted by using XLFit module in Excel.
In the case of `O=c1nc(CCc2cccc(F)c2)cc2n1C[C@H]1COCCN21` [Example E257, (S)-7-(3-fluorophenethyl)-3,4,11,11a-tetrahydropyrimido[6′,1′:2,3]imidazo[5,1-c][1,4] oxazin-9(1H)-one], the IC50 was at most 10 µM.

Consider `O=c1nc(OCc2cc(F)c(F)cc2F)cc2n1C[C@H]1COCN21` [Example E173, (S)-6-((2,4,5-trifluorobenzyl)oxy)-10,10a-dihydro-1H-oxazolo[3′,4′:3,4]imidazo[1,2-c] pyrimidin-8(3H)-one], for which the IC50 is at most 10 µM.

On to `O=c1nc(OCc2cc(F)c(F)cc2F)cc2n1C[C@H]1CCCN21` [Example E218, (R)-3-((2,4,5-trifluorobenzyl)oxy)-7,8,8a,9-tetrahydropyrrolo[1′,2′:3,4]imidazo[1,2-c]pyrimidin-1(6H)-one], for which the IC50 is at most 10 µM.

As to `Cn1cc(Oc2c(F)cc(COc3cc4n(c(=O)n3)CC3OCCCN43)cc2F)cn1` (stereo not shown) [Example E200, 7-((3,5-Difluoro-4-((1-methyl-1H-pyrazol-4-yl)oxy)benzyl)oxy)-3,4,11,11a tetrahydropyrimido[6′,1′:2,3]imidazo[5,1-b][1,3]oxazin-9(2H)-one], the IC50 was at most 10 µM.

As for `O=c1nc(OCc2cccc(F)c2F)cc2n1C[C@H]1COCN21` [Example E169, (S)-6-((2,3-difluorobenzyl)oxy)-10,10a-dihydro-1H-oxazolo[3′,4′:3,4]imidazo[1,2-c]pyrimidin-8(3H)-one], the IC50 was at most 10 µM.

Take `O=c1nc(NCc2ccc(F)cc2F)cc2n1C[C@H]1CCCN21` [Example E216, (R)-3-((2,4-difluorobenzyl)amino)-7,8,8a,9-tetrahydropyrrolo[1,2′:3,4]imidazo[1,2-c] pyrimidin-1(6H)-one]: the IC50 was at most 10 µM.

For `N#Cc1ccc(CCOc2cc3n(c(=O)n2)C[C@H]2COCN32)cc1` [Example E191, (S)-4-(2-((8-oxo-3,8,10,10a-tetrahydro-1H-oxazolo[3′,4′:3,4]imidazo[1,2-c]pyrimidin-6-yl)oxy)ethyl)benzonitrile], the IC50 is at most 10 µM.

In the case of `O=c1nc(OCc2cccc(F)c2F)cc2n1C[C@@H]1CCCN21` [Example E212, (S)-3-((2,3-difluorobenzyl)oxy)-7,8,8a,9-tetrahydropyrrolo[1′,2′:3,4]imidazo[1,2-c]pyrimidin-1(6H)-one], the IC50 was at most 10 µM.

`O=c1nc(OCc2cc(F)c(F)cc2F)cc2n1C[C@@H]1COCCN21` [Example E219, (R)-7-((2,4,5-trifluorobenzyl)oxy)-3,4,11,11a-tetrahydropyrimido[6′,1′:2,3]imidazo[5,1-c] [1,4]oxazin-9(1H)-one]: the IC50 was at most 10 µM.

As for `O=c1nc(OCc2cc(F)c(F)cc2F)cc2n1C[C@@H]1CCOCN21` [Example E181, (S)-3-((2,4,5-trifluorobenzyl)oxy)-8,9,9a,10-tetrahydropyrimido[6′,1′:2,3]imidazo[1,5-c][1,3]oxazin-1(6H)-one], the IC50 was at most 10 µM.

As to `O=c1nc(OCc2cc(F)c(F)cc2F)cc2n1C[C@@H]1COCN21` [Example E175, (R)-6-((2,4,5-trifluorobenzyl)oxy)-10,10a-dihydro-1H-oxazolo[3′,4′:3,4]imidazo[1,2-c] pyrimidin-8(3H)-one], the IC50 is at most 10 µM.

For the compound `O=c1nc(OCc2cc(F)cc(F)c2)cc2n1C[C@@H]1CCCN21` [Example E215, (S)-3-((3,5-difluorobenzyl)oxy)-7,8,8a,9-tetrahydropyrrolo[1′,2′:3,4]imidazo[1,2-c]pyrimidin-1(6H)-one], the IC50 was at most 10 µM.

On to `O=c1nc(OCc2cccc(F)c2F)cc2n1C[C@@H]1COCCN21` [Example E221, (R)-7-((2,3-difluorobenzyl)oxy)-3,4,11,11a-tetrahydropyrimido[6′,1′:2,3]imidazo[5,1-c][1,4]oxazin-9(1H)-one], for which the IC50 was at most 0.1 µM.

Regarding `O=c1nc(OCc2cc(F)c(OC3CCC(F)(F)CC3)c(F)c2)cc2n1C[C@@H]1CCCN21` [Example E206, (S)-3-((4-((4,4-difluorocyclohexyl)oxy)-3,5-difluorobenzyl)oxy)-7,8,8a,9-tetrahydropyrrolo[1′,2′:3,4]imidazo[1,2-c]pyrimidin-1(6H)-one], the IC50 was at most 10 µM.

As for `N#Cc1ccc(CCOc2cc3n(c(=O)n2)C[C@H]2CCCN32)cc1` [Example E254, (R)-4-(2-((1-oxo-1,6,7,8,8a,9-hexahydropyrrolo[1′,2′:3,4]imidazo[1,2-c]pyrimidin-3-yl)oxy)ethyl)benzonitrile], the IC50 was at most 10 µM.

As to `O=c1nc(OCCc2cccc(F)c2)cc2n1C[C@H]1CCCN21` [Example E249, (R)-3-(3-fluorophenethoxy)-7,8,8a,9-tetrahydropyrrolo[1′,2′:3,4]imidazo[1,2-c]pyrimidin-1(6H)-one], the IC50 is at most 10 µM.

On to `O=c1nc(OCc2cc(F)cc(F)c2)cc2n1C[C@@H]1CCOCN21` [Example E182, (S)-3-((3,5-difluorobenzyl)oxy)-8,9,9a,10-tetrahydropyrimido[6′,1′:2,3]imidazo[1,5-c][1,3] oxazin-1(6H)-one], for which the IC50 is at most 10 µM.

A further assay addresses T2, recombinant human Lp-PLA2 (Homo sapiens, UniProt Q13093).
T2 sequence (Q13093 22-441): T1 sequence (Q13093 22-441)
The assay can be described thus: (1a) PED6 assay, recombinant human Lp-PLA2 (rhLp-PLA2). It is filed as biochemical. Conditions: Examples 1-167 and 413-430 were tested here, one experiment or average of multiple experiments, read-out: rhLp-PLA2 (pIC50) (converted). The source says: (1) Recombinant Human Lp-PLA2 Assays (rhLp-PLA2)
N-((6-(2,4-Dinitrophenyl)amino)-hexanoyl)-2-(4,4-difluoro-5,7-dimethyl-4-bora-3a,4a-diaza-s-indacene-3-pentanoyl)-1-hexadecanoyl-sn-glycero-3-phosphoethanolamine, triethylammonium salt (PED6) is a commercially available fluorescently-labeled phospholipid, which is commercially available from Invitrogene and Molecular Probes. There is a quenching […] and a Bodipy fluorescein (FL) group in the sn2 position. Upon cleavage with Lp-PLA2, the Bodipy FL group is liberated and then may result in an increase in fluorescence. Inhibitors of Lp-PLA2 therefore prevent this cleavage and no fluorescent increase is observed.
The PED6 assay was run as an unquenched 10 μL assay. The source plate containing the compounds to be tested was prepared by making 1:3 (by volume) serial dilution of the compounds within DMSO on 384-well microplate. Then, 0.01 μL of the compounds on compound source plate were transferred into 384 well Greiner 784076 (black) plates using ECHO liquid dispenser. 5 μL of recombinant human Lp-PLA2 enzyme (4 nM) rhLp-PLA2 in assay buffer of 50 mM HEPES, pH 7.4, 150 mM NaCl, 1 mM CHAPS) was added to each well of the plate. Plates were centrifuged for 10 sec at 500 rpm. After 30 minutes preincubation, 5 μL of substrate (4 μM PED6 [from 5 mM DMSO stock] in assay buffer of 50 mM HEPES, pH 7.4, 150 mM NaCl, 1 mM CHAPS) was added to 384 well Greiner 784076 (black) plates. Plates were centrifuged for 10 sec at 500 rpm. The plate was covered to protect it from light and incubated for 20 min at room temperature. The plates were read for fluorescence intensity at ex: 480/em: 540 using ViewLux microplate imager for Envision spectrofluroimeters. pIC50 data, curve and QC analysis was conducted by using XL fit module in Excel.
Consider `O=c1nc(OCc2ccc(C(F)(F)F)c(Cl)c2)cc2n1CC1CCCCN21` (stereo not shown) [Example E7, 3-((3-Chloro-4-(trifluoromethyl)benzyl)oxy)-6,7,8,9,9a,10-hexahydro-1H-pyrido[1′,2′:3,4] imidazo[1,2-c]pyrimidin-1-one], for which the IC50 is at most 10 µM.

With `N#Cc1ccc(COc2cc3n(c(=O)n2)CC2CCCCN32)cc1` (stereo not shown) [Example E4, 4-(((1-Oxo-6,7,8,9,9a,10-Hexahydro-1H-pyrido[1′,2′:3,4]imidazo[1,2-c]pyrimidin-3-yl)oxy)methyl)benzonitrile], the IC50 was at most 10 µM.

As to `O=c1nc(OCc2cc(F)c(Oc3ccnc(C(F)(F)F)c3)c(F)c2)cc2n1C[C@H]1CCCN21` [Example E67, (R)-3-((3,5-difluoro-4-((2-(trifluoromethyl)pyridin-4-yl)oxy)benzyl)oxy)-7,8,8a, 9-tetra hydropyrrolo[1′,2′:3,4]imidazo[1,2-c]pyrimidin-1(6H)-one], the IC50 is at most 0.001 µM.

As for `Cc1ccc(COc2cc3n(c(=O)n2)CC2CCCCN32)cc1` (stereo not shown) [Example E9, 3-((4-Methylbenzyl)oxy)-6,7,8,9,9a,10-hexahydro-1H-pyrido[1,2′:3,4]imidazo[1,2-c] pyrimidin-1-one], the IC50 is at most 10 µM.

As to `CN(Cc1ccc(F)cc1F)c1cc2n(c(=O)n1)C[C@@H]1CCCCN21` [Example E61, (S)-3-((2,4-Difluorobenzyl)(methyl)amino)-6,7,8,9,9a,10-hexahydro-1H-pyrido[1′,2′:3,4] imidazo[1,2-c]pyrimidin-1-one], the IC50 is at most 0.1 µM.

(Values after patent publication US11999746B2, “Compounds” (GlaxoSmithKline Intellectual Property Development Limited, priority 2014, dated 2024).)
